Results: the NIST ThermoML archive (doi:10.1021/acs.jced.5b00105)

Test: refractive index (Na D-line) (dimensionless); xn = mol fraction of the nth substance listed
Details: 100 kPa, Liquid

CCCCC1CCCCC1 [butylcyclohexane] + CC(C)CC(C)(C)C
refractive index
Details	293.15 K	298.15 K	303.15 K	308.15 K	313.15 K	318.15 K	323.15 K
x1 = 0.0999	1.3972	–	1.3928	–	1.3884	–	–
x1 = 0.1008	–	1.3944	–	1.3898	–	1.3849	1.3824
x1 = 0.2	–	1.4001	–	1.3953	–	1.3907	1.3885
x1 = 0.2002	1.4026	–	1.3981	–	1.3935	–	–
x1 = 0.3001	1.4079	1.4055	1.4034	1.4008	1.3988	1.3959	1.3943
x1 = 0.3996	1.413	–	1.4087	–	1.4042	–	–
x1 = 0.3999	–	1.4105	–	1.4057	–	1.4015	1.3993
x1 = 0.5004	–	1.4155	–	1.4112	–	1.4069	1.4045
x1 = 0.5005	1.4181	–	1.4139	–	1.4094	–	–
x1 = 0.5999	–	1.4204	–	1.4158	–	1.4118	1.4093
x1 = 0.6003	1.423	–	1.4186	–	1.4141	–	–
x1 = 0.6994	1.4276	–	1.423	–	1.4185	–	–
x1 = 0.6995	–	1.4249	–	1.4207	–	1.4161	1.4145
x1 = 0.7998	–	1.4295	–	1.4249	–	1.4208	1.4184
x1 = 0.8	1.4321	–	1.4274	–	1.4229	–	–
x1 = 0.9	–	1.4335	–	1.4292	–	1.4248	1.4229
x1 = 0.9001	1.4362	–	1.4314	–	1.4271	–	–
x1 = 1	1.4403	1.4377	1.4355	1.4333	1.4314	1.429	1.4268

CCC1CCCCC1 [ethylcyclohexane] + CC(C)CC(C)(C)C
refractive index
Details	293.15 K	298.15 K	303.15 K	308.15 K	313.15 K	318.15 K	323.15 K
x1 = 0.1	1.3959	1.3926	1.3918	1.3889	1.3877	1.3826	1.3805
x1 = 0.1999	–	1.3965	–	1.3932	–	1.3867	1.3849
x1 = 0.2	1.4005	–	1.3964	–	1.3924	–	–
x1 = 0.3	–	1.4004	–	1.3975	–	1.3912	1.3891
x1 = 0.3003	1.4043	–	1.4003	–	1.396	–	–
x1 = 0.3997	1.4084	–	1.4041	–	1.4003	–	–
x1 = 0.4	–	1.4046	–	1.4015	–	1.3954	1.3931
x1 = 0.5	–	1.4086	–	1.4059	–	1.3996	1.3975
x1 = 0.5002	1.4123	–	1.4084	–	1.4047	–	–
x1 = 0.6001	–	1.4129	–	1.4098	–	1.4037	1.4015
x1 = 0.6005	1.4167	–	1.4125	–	1.4087	–	–
x1 = 0.7002	1.4207	–	1.4169	–	1.4132	–	–
x1 = 0.7004	–	1.4172	–	1.4146	–	1.4081	1.4059
x1 = 0.8001	–	1.4214	–	1.4186	–	1.4118	1.4097
x1 = 0.8003	1.4254	–	1.4211	–	1.4175	–	–
x1 = 0.8994	–	1.4256	–	1.4228	–	1.4161	1.4144
x1 = 0.8997	1.4295	–	1.4253	–	1.4216	–	–
x1 = 1	1.4337	1.4301	1.4295	1.4278	1.4259	1.4204	1.4187

CC1CCCCC1 [methylcyclohexane] + CC(C)CC(C)(C)C
refractive index
Details	293.15 K	298.15 K	303.15 K	308.15 K	313.15 K	318.15 K	323.15 K
x1 = 0.0999	–	1.3912	–	1.3876	–	1.3811	1.3789
x1 = 0.1012	1.395	–	1.3903	–	1.3861	–	–
x1 = 0.1999	–	1.3938	–	1.3902	–	1.3844	1.3819
x1 = 0.2003	1.3975	–	1.3929	–	1.3887	–	–
x1 = 0.2997	–	1.3966	–	1.3942	–	1.3871	1.3846
x1 = 0.3001	1.4	–	1.3958	–	1.3916	–	–
x1 = 0.4	–	1.3997	–	1.3962	–	1.3898	1.3869
x1 = 0.4019	1.403	–	1.3988	–	1.3947	–	–
x1 = 0.5	–	1.4028	–	1.3998	–	1.393	1.3905
x1 = 0.5008	1.406	–	1.4018	–	1.3978	–	–
x1 = 0.6	1.409	1.4059	1.4049	1.4029	1.401	1.3962	1.3938
x1 = 0.6998	1.4125	–	1.4082	–	1.4043	–	–
x1 = 0.7001	–	1.4092	–	1.4064	–	1.3993	1.397
x1 = 0.7999	–	1.4127	–	1.4097	–	1.403	1.4
x1 = 0.8	1.4158	–	1.4117	–	1.4077	–	–
x1 = 0.9	1.4195	1.4161	1.4153	1.4132	1.4114	1.4066	1.4039
x1 = 1	1.4232	1.4199	1.419	1.4168	1.415	1.4102	1.4078
